Data reported in patent publication US11351131B2, “Anti-inflammatory composition” (NEOPHARM CO., LTD., priority 2016, dated 2022).

Columns and labels:
atopic dermatitis = test: Atopic dermatitis improvement effect (EASI score); assay type: in vivo, human; details: 30 pediatric patients with atopic dermatitis, twice a day for 4 weeks
Description: In order to measure atopic dermatitis improvement effect, the anti-inflammatory compositions were prepared according to the following Examples. Here, the atopic dermatitis improvement effect was measured using an eczema area severity index (EASI) score. 30 pediatric patients with atopic dermatitis were treated twice a day for 4 weeks, and then effects on atopic symptoms were measured. Here, as a negative control group, a test group in which the active ingredient was not used was adopted.

[1] = test system: human fibroblast (ATCC 2076); test: Confirmation of cytotoxicity (MTT cell viability); assay type: cell-based; details: for Cell viability (%): human fibroblast, MTT
Description: The cell viability for human fibroblast (ATCC 2076) was measured using the anti-inflammatory composition prepared in the following Examples.
The human fibroblast (ATCC 2076) with a concentration of 5×10^4 cells/ml was inoculated into a 24-well culture plate of Iscove's Modified Dulbecco's Medium (IMDM, GIBCO) containing 10% bovine serum. […] Then, the supernatant was removed, the cells were washed with 200 μl of 5% phosphate buffered saline (PBS), 1.0 ml of MTT solution was added to each well, and after 4 hours, and the MTT was removed. Next, 1.0 ml of DMSO was added to each well, and incubation was performed overnight at 37° C. The absorbance at 570 nm was measured to determine the cell viability using Equation 1 below, and results thereof are shown in Table 1 below. Here, as a negative control group, a test group in which the active ingredient was not used was adopted. Cell viability (%)=(A570λ value/B570λ value)×100 [Equation 1]
A: Absorbance value at 570 nm of Example
B: Absorbance value at 570 nm of negative control group

IL-8 = test: Anti-inflammatory effect: IL-8 expression in atopic dermatitis-induced 3D skin model (immunohistochemistry); assay type: cell-based; details: compared with the atopic dermatitis-induced skin model, 72 hours, quantified immunohistochemistry, read-out: IL-8 inhibitory effect
Description: (§1) In order to measure the anti-inflammatory efficacy, atopic dermatitis was induced with respect to IL-8 and IL-17A, which are inflammation-inducing cytokines, and expression amounts thereof were measured.
(§2) In order to induce atopic dermatitis, the 3D culture tissue (EpiDerm Full Thickness 400, sold by MatTek) media containing Poly (I:C), TNF-α, IL-4 and IL-13 were used, and treated for 72 hours with N-(2-hydroxyethyl)octanamide at a final concentration of 100 μM. Then, the 3D culture tissue was immobilized on formalin to make a paraffin block, and the degree of expression of inflammation-inducing cytokine was evaluated.
(§3) In FIG. 1, AD represents a skin model in which atopic dermatitis was induced, and the anti-inflammatory effect was evaluated based on the expression amounts of IL-8 and IL-17A.
(§4) Further, the inhibitory effect of each cytokine was quantified based on the results obtained through the immunohistochemistry obtained in FIG. 1, and shown in FIG. 2.

IL-17A = test: Anti-inflammatory effect: IL-17A expression in atopic dermatitis-induced 3D skin model (immunohistochemistry); assay type: cell-based; details: compared with the atopic dermatitis-induced skin model, 72 hours, quantified immunohistochemistry, read-out: IL-17A inhibitory effect
Description: as §1, §2, §3, §4

CCCCCCCC(=O)NCCO [Example 1, N-(2-hydroxyethyl)octanamide]
Atopic dermatitis improvement effect (EASI score) (atopic dermatitis): significant numerical decrease
Cytotoxicity ([1]; in the concentration range of the evaluation method): no cytotoxicity
Cell viability (%) ([1]; used amount 0.00064 μM): 100%
Cell viability (%) ([1]; used amount 0.0032 μM): 102%
Cell viability (%) ([1]; used amount 0.016 μM): 97%
Cell viability (%) ([1]; used amount 0.08 μM): 98%
Cell viability (%) ([1]; used amount 0.4 μM): 98%
Cell viability (%) ([1]; used amount 2 μM): 101%
Cell viability (%) ([1]; used amount 10 μM): 103%
Cell viability (%) ([1]; used amount 50 μM): 98%
Cell viability (%) ([1]; used amount 250 μM): 109%
inhibition at 100 µM (IL-8): ≥ 48.6%
inhibition at 100 µM (IL-17A): ≥ 57.5%
